Assay results taken from EP0687469A2, “Anti-arrhythmic 3,7-diazabicyclo (3,3,1)nonane compounds” (Kali-Chemie Pharma GmbH, priority 1994, dated 1995).

Assays:
[1] = system: transienter Auswärtsstrom Ito; assay: voltage clamp measurement of ion currents in isolated heart muscle cells (Ito); format: cell-based, Ratten; conditions: read-out: Blockade von Ionenströmen in % des Vorwerts transienter Auswärtsstrom Ito
Description: (§1) Die Experimente wurden mit der Spannungsklemmmethode an isolierten Herzmuskelzellen von Meerschweinchen und Ratten durchgeführt. Hierbei wurden die Messungen des Ito an Zellen von Rattenherzen und die Messungen des Ik an Zellen von Meerschweinchenherzen durchgeführt. Die Herzen wurden mit proteolytischen Enzymen (Collagenase) perfundiert, um das Bindegewebe zu lockern. Anschließend wurde das Gewebe mechanisch zerkleinert und sodann erfolgte eine weitere Vereinzelung der Zellen in einer Nährlösung im Schüttelbad. Durch anschließendes Zentrifugieren wurde eine Suspension von Herzmuskelzellen erhalten. Bei der angewendeten Spannungsklemmethode zur Messung der Membranströme wird mittels einer Mikroelektrode (in Form einer mit Elektrolytlösung gefüllten Glaskapillare) das Zellinnere mit einem Verstärker verbunden, der die Membranspannung vorgeben kann. Fließt nun ein Ionenstrom durch die Membran (= Öffnung des Ionenkanalproteins) und verschiebt die Membranspannung, kompensiert der Verstärker diese Verschiebung durch einen Gegenstrom, d. h. die Spannung ist sozusagen festgeklemmt. Der gemessene Gegenstrom entspricht in seinem zeitlichen Verlauf dem physiologischen Ionenstrom mit umgekehrtem Vorzeichen. Die Aktivierung der verschiedenen Ionenströme in der Zellmembran hängt charakteristisch von Spannung und Zeit ab. […]

[2] = system: verz.gleichr. Auswärtsstrom Ik; assay: voltage clamp measurement of ion currents in isolated heart muscle cells (Ik); format: cell-based, Meerschweinchen; conditions: read-out: Blockade von Ionenströmen in % des Vorwerts verz.gleichr. Auswärtsstrom Ik
Description: as §1

Q: How did the inhibition at 1 µM [1] turn out when `CC(C)CN1CC2CN(C(C)C)CC(C1)C21CCCCC1` [Bertosamil, N-Isobutyl-N'-isopropyl-9,9-pentamethylen-3,7-diazabicyclo[3,3,1]nonan] was run?
A: 38%

Q: What about the inhibition at 1 µM [2] of the same molecule?
A: 13%
